Test results: patent US10647673B2, “Acetophenone compound, preparation method thereof, and application thereof in fatty liver prevention and treatment” (Nanjing Bioenergy Medicine Science & Technology Co., Ltd., priority 2017, dated 2020)

system: fatty liver of the SD rats; assay: Pathological sections and grading of fatty liver of SD rats; type: in vivo; conditions: animal 1; compounds 80 mg/kg, Sim 10 mg/kg, OCA 10 mg/kg
Method: 500 g of lard oil was taken, placed in a container, and heated to melt. When the temperature rose to 100° C., it was added with 200 g of cholesterol to dissolve completely, and then further added with 20 g of propylthiouracil. The resulted mixture was stirred well, and added with 500 ml of Tween 80 after dissolution, resulting in an oil phase. At the same time, 600 mL of distilled water and 400 mL of 1,2-propanediol were taken and heated to 60° C. in a water bath, then were added with 40 g of sodium deoxycholate. The resulted mixture was stirred well until realizing complete dissolution, so as to give an aqueous phase. The aqueous phase was added into the oil phase and mixed well to give a lipid emulsion. The lipid emulsion was heated in a water bath of 37° C. before intragastric administration to animals.
An appropriate amount of pharmaceutical was weighed, added with 0.5% CMC-Na, and mixed homogeneously by grinding. There are groups for Compound 01 (80 mg/kg), Compound 02 (80 mg/kg), Compound 03 (80 mg/kg), Compound 04 (80 mg/kg), Compound 05 (80 mg/kg), Compound 06 (80 mg)/kg), Compound 07 (80 mg/kg), Compound 08 (80 mg/kg), Compound 09 (80 mg/kg), Compound 10 (80 mg/kg), Compound 11 (80 mg/kg), Compound 12 (80 mg/kg), Compound 13 (80 mg/kg), Compound 14 (80 mg/kg), Compound 15 (80 mg/kg), Compound 16 (80 mg/kg), Compound 17 (80 mg/kg), Compound 18 (80 mg/kg), Compound 19 (80 mg/kg), Compound 20 (80 mg/kg), Compound 21 (80 mg/kg), and Compound 22 (80 mg/kg).
Male SD rats weighing 180-200 g were fed adaptively for 7 days. Based on body weight, 10 animals were used as control and the remaining animals were intragastrically administered with the lipid emulsion every day, 1 ml/100 g body weight for 14 days. After fasting for 12 hours, 1 mL of blood was collected from the orbits of the animals, and was determined by Hitachi Automatic Biochemical Analyzer 7080 for serum cholesterol (CHO), triglyceride (TG), low density lipoprotein (LDL-C) and high density lipoprotein (HDL-C).
The modeled rats were continued with the intragastric administration of the lipid emulsion. At the same time, the pharmaceutical-administered groups were administrated with a corresponding dose of pharmaceuticals, while the Model group was administrated with an equal volume of solvent. The pharmaceutical-administered groups were administrated with the lipid emulsion in the morning, and with the pharmaceuticals in the afternoon. The animals were measured for the body weight once a week, and were observed. After 14 days of continuous administration, 1 mL of blood was collected from the orbits, and was determined for the contents of triglyceride, cholesterol, low density lipoprotein and high density lipoprotein in blood serum.

Q: For CC(=O)c1ccc(NC(=O)c2cccnc2)cc1 [Compound 01], which “Pathological grading: Steatotic hepatocytes” value (“Pathological grading” below) is on record?
A: ++ (45-65% of hepatocytes undergoing steatosis)

Q: Nc1ccc(C(=O)CNC(=O)c2cccnc2)cc1 [Compound 03] was tested. Which “Pathological grading” value did it give?
A: ++ (45-65% of hepatocytes undergoing steatosis)

Q: Which “Pathological grading” value does the source give for Cc1ccc(C)c(OCCCC(C)(C)C(=O)NCC(=O)c2ccc(N)cc2)c1 [Compound 04] here?
A: ++ (45-65% of hepatocytes undergoing steatosis)

Q: CC(=O)c1ccc(O)c(NC(=O)C(C)(C)CCCOc2cc(C)ccc2C)c1 [Compound 05] was tested. Which “Pathological grading” value did it give?
A: + (25-45% of hepatocytes undergoing steatosis)

Q: For CC(=O)c1ccc(O)c(NC(=O)c2cccnc2)c1 [Compound 06], which “Pathological grading” value is on record?
A: + (25-45% of hepatocytes undergoing steatosis)

Q: For CC(=O)c1ccc(NC(=O)C(C)(C)Oc2ccc(C(=O)c3cccc(Cl)c3)cc2)cc1 [Compound 07], which “Pathological grading” value is on record?
A: ++ (45-65% of hepatocytes undergoing steatosis)

Q: CC(=O)c1ccc(NC(=O)C(C)(C)Oc2ccc(Cl)cc2)cc1 [Compound 08] was tested. Which “Pathological grading” value did it give?
A: ++ (45-65% of hepatocytes undergoing steatosis)

same assay, conditions: animal 2; compounds 80 mg/kg, Sim 10 mg/kg, OCA 10 mg/kg

Q: Which “Pathological grading” value does the source give for CC(=O)c1ccc(NC(=O)c2cccnc2)cc1 [Compound 01] here?
A: ++ (45-65% of hepatocytes undergoing steatosis)

Q: With Nc1ccc(C(=O)CNC(=O)c2cccnc2)cc1 [Compound 03] as the molecule, how does the “Pathological grading” value read?
A: + (25-45% of hepatocytes undergoing steatosis)

Q: Which “Pathological grading” value does the source give for Cc1ccc(C)c(OCCCC(C)(C)C(=O)NCC(=O)c2ccc(N)cc2)c1 [Compound 04] here?
A: ++ (45-65% of hepatocytes undergoing steatosis)

Q: CC(=O)c1ccc(O)c(NC(=O)C(C)(C)CCCOc2cc(C)ccc2C)c1 [Compound 05] was tested. Which “Pathological grading” value did it give?
A: +++ (65-85% or more of hepatocytes undergoing steatosis)

Q: With CC(=O)c1ccc(O)c(NC(=O)c2cccnc2)c1 [Compound 06] as the molecule, how does the “Pathological grading” value read?
A: ++ (45-65% of hepatocytes undergoing steatosis)

Q: CC(=O)c1ccc(NC(=O)C(C)(C)Oc2ccc(C(=O)c3cccc(Cl)c3)cc2)cc1 [Compound 07] was tested. Which “Pathological grading” value did it give?
A: ++ (45-65% of hepatocytes undergoing steatosis)

Q: With CC(=O)c1ccc(NC(=O)C(C)(C)Oc2ccc(Cl)cc2)cc1 [Compound 08] as the molecule, how does the “Pathological grading” value read?
A: ++ (45-65% of hepatocytes undergoing steatosis)

same assay, conditions: animal 3; compounds 80 mg/kg, Sim 10 mg/kg, OCA 10 mg/kg

Q: How did the “Pathological grading” value turn out when CC(=O)c1ccc(NC(=O)c2cccnc2)cc1 [Compound 01] was run?
A: ++ (45-65% of hepatocytes undergoing steatosis)

Q: With Nc1ccc(C(=O)CNC(=O)c2cccnc2)cc1 [Compound 03] as the molecule, how does the “Pathological grading” value read?
A: +++ (65-85% or more of hepatocytes undergoing steatosis)

Q: Cc1ccc(C)c(OCCCC(C)(C)C(=O)NCC(=O)c2ccc(N)cc2)c1 [Compound 04] was tested. Which “Pathological grading” value did it give?
A: ++ (45-65% of hepatocytes undergoing steatosis)

Q: How did the “Pathological grading” value turn out when CC(=O)c1ccc(O)c(NC(=O)C(C)(C)CCCOc2cc(C)ccc2C)c1 [Compound 05] was run?
A: ++ (45-65% of hepatocytes undergoing steatosis)

Q: Which “Pathological grading” value does the source give for CC(=O)c1ccc(O)c(NC(=O)c2cccnc2)c1 [Compound 06] here?
A: ++ (45-65% of hepatocytes undergoing steatosis)

Q: How did the “Pathological grading” value turn out when CC(=O)c1ccc(NC(=O)C(C)(C)Oc2ccc(C(=O)c3cccc(Cl)c3)cc2)cc1 [Compound 07] was run?
A: ++ (45-65% of hepatocytes undergoing steatosis)

Q: Which “Pathological grading” value does the source give for CC(=O)c1ccc(NC(=O)C(C)(C)Oc2ccc(Cl)cc2)cc1 [Compound 08] here?
A: + (25-45% of hepatocytes undergoing steatosis)

same assay, conditions: animal 4; compounds 80 mg/kg, Sim 10 mg/kg, OCA 10 mg/kg

Q: CC(=O)c1ccc(NC(=O)c2cccnc2)cc1 [Compound 01] was tested. Which “Pathological grading” value did it give?
A: ++ (45-65% of hepatocytes undergoing steatosis)

Q: With Nc1ccc(C(=O)CNC(=O)c2cccnc2)cc1 [Compound 03] as the molecule, how does the “Pathological grading” value read?
A: ++ (45-65% of hepatocytes undergoing steatosis)

Q: How did the “Pathological grading” value turn out when Cc1ccc(C)c(OCCCC(C)(C)C(=O)NCC(=O)c2ccc(N)cc2)c1 [Compound 04] was run?
A: +++ (65-85% or more of hepatocytes undergoing steatosis)

Q: How did the “Pathological grading” value turn out when CC(=O)c1ccc(O)c(NC(=O)C(C)(C)CCCOc2cc(C)ccc2C)c1 [Compound 05] was run?
A: ++ (45-65% of hepatocytes undergoing steatosis)

Q: How did the “Pathological grading” value turn out when CC(=O)c1ccc(O)c(NC(=O)c2cccnc2)c1 [Compound 06] was run?
A: + (25-45% of hepatocytes undergoing steatosis)

Q: For CC(=O)c1ccc(NC(=O)C(C)(C)Oc2ccc(C(=O)c3cccc(Cl)c3)cc2)cc1 [Compound 07], which “Pathological grading” value is on record?
A: ++ (45-65% of hepatocytes undergoing steatosis)

Q: How did the “Pathological grading” value turn out when CC(=O)c1ccc(NC(=O)C(C)(C)Oc2ccc(Cl)cc2)cc1 [Compound 08] was run?
A: ++ (45-65% of hepatocytes undergoing steatosis)

same assay, conditions: animal 5; compounds 80 mg/kg, Sim 10 mg/kg, OCA 10 mg/kg

Q: Which “Pathological grading” value does the source give for CC(=O)c1ccc(NC(=O)c2cccnc2)cc1 [Compound 01] here?
A: ++ (45-65% of hepatocytes undergoing steatosis)

Q: For Nc1ccc(C(=O)CNC(=O)c2cccnc2)cc1 [Compound 03], which “Pathological grading” value is on record?
A: ++ (45-65% of hepatocytes undergoing steatosis)

Q: Cc1ccc(C)c(OCCCC(C)(C)C(=O)NCC(=O)c2ccc(N)cc2)c1 [Compound 04] was tested. Which “Pathological grading” value did it give?
A: ++ (45-65% of hepatocytes undergoing steatosis)

Q: Which “Pathological grading” value does the source give for CC(=O)c1ccc(O)c(NC(=O)C(C)(C)CCCOc2cc(C)ccc2C)c1 [Compound 05] here?
A: + (25-45% of hepatocytes undergoing steatosis)

Q: With CC(=O)c1ccc(O)c(NC(=O)c2cccnc2)c1 [Compound 06] as the molecule, how does the “Pathological grading” value read?
A: ++ (45-65% of hepatocytes undergoing steatosis)

Q: Which “Pathological grading” value does the source give for CC(=O)c1ccc(NC(=O)C(C)(C)Oc2ccc(C(=O)c3cccc(Cl)c3)cc2)cc1 [Compound 07] here?
A: + (25-45% of hepatocytes undergoing steatosis)

Q: How did the “Pathological grading” value turn out when CC(=O)c1ccc(NC(=O)C(C)(C)Oc2ccc(Cl)cc2)cc1 [Compound 08] was run?
A: + (25-45% of hepatocytes undergoing steatosis)
